From ChEMBL document CHEMBL5543158, “Design of Evodiamine-Glucose Conjugates with Improved In Vivo Antitumor Activity” (J Med Chem, 2024)
≈ marks a conversion by molar mass, not a printed value.

Test: Solubility of the compound in double distilled water measured upto 30 mins by UV-vis spectrophotometry
Assay type: physicochemical

`CN1c2ccc(F)cc2C(=O)N2CCc3c([nH]c4ccc(OCc5cn(CCCO[C@@H]6O[C@H](CO)[C@@H](O)[C@H](O)[C@H]6O)nn5)cc34)[C@H]21` showed a solubility at 0.5 h of 2020 µg/mL (≈ 3.16 mM).
